Laboratory results from PubChem BioAssay (NCI).
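In this assay, cells in 96-well plates receive the compound at five concentrations for 48 hours. Endpoints are linearly interpolated between the surrounding concentrations. TGI denotes the concentration required for complete inhibition of growth.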

Experiments:
Test in all cases: NCI tumour cell line growth inhibition, 48 h
[1] = system: 786-0 renal
[2] = system: A549 NSCLC
[3] = system: ACHN renal
[4] = system: BT-549 breast
[5] = system: CCRF-CEM leukemia
[6] = system: COLO 205 colon
[7] = system: DU-145 prostate
[8] = system: HCC-2998 colon
[9] = system: HCT-15 colon
[10] = system: HL-60(TB) leukemia
[11] = system: HOP-92 NSCLC
[12] = system: HS 578T breast
[13] = system: HT29 colon
[14] = system: IGROV1 ovarian
[15] = system: K-562 leukemia
[16] = system: KM12 colon
[17] = system: LOX IMVI melanoma
[18] = system: M14 melanoma
[19] = system: MALME-3M melanoma
[20] = system: MCF7 breast
[21] = system: MDA-MB-231 breast
[22] = system: MDA-MB-435
[23] = system: MDA-N
[24] = system: MOLT-4 leukemia
[25] = system: NCI-H226 lung
[26] = system: NCI-H23 lung
[27] = system: NCI-H460 lung
[28] = system: NCI-H522 lung
[29] = system: OVCAR-3 ovarian
[30] = system: OVCAR-4 ovarian
[31] = system: OVCAR-5 ovarian
[32] = system: OVCAR-8 ovarian
[33] = system: RPMI-8226 leukemia
[34] = system: RXF 393 renal
[35] = system: SF-268 CNS
[36] = system: SF-295 CNS
[37] = system: SK-MEL-2 melanoma
[38] = system: SK-MEL-28 melanoma
[39] = system: SK-MEL-5 melanoma
[40] = system: SN12C renal
[41] = system: SNB-19 CNS
[42] = system: SNB-75 CNS
[43] = system: SW-620 colon
[44] = system: T-47D breast
[45] = system: TK-10 renal
[46] = system: U251 CNS
[47] = system: UACC-257 melanoma
[48] = system: UACC-62 melanoma
[49] = system: UO-31 renal
[50] = system: CAKI-1 renal
[51] = system: EKVX NSCLC
[52] = system: HCT-116 colon
[53] = system: HOP-62 NSCLC
[54] = system: PC-3 prostate
[55] = system: SF-539 CNS
[56] = system: SK-OV-3 ovarian
[57] = system: SR leukemia

Measured: TGI

CN1CCN(C(=S)N(C)C(=O)c2ccc(Cl)cc2)CC1
> 100 µM: [1] | [2] | [3] | [4] | [5] | [6] | [7] | [8] | [9] | [10] | [11] | [12] | [13] | [14] | [15] | [16] | [17] | [18] | [19] | [20] | [21] | [22] | [23] | [24] | [25] | [26] | [27] | [28] | [29] | [30] | [31] | [32] | [33] | [34] | [35] | [36] | [37] | [38] | [39] | [40] | [41] | [42] | [43] | [44] | [45] | [46] | [47] | [48] | [49]

CCOC(=O)C1CC(O)C(=O)N1C (stereo unspecified)
> 100 µM: [1] | [2] | [3] | [4] | [50] | [5] | [6] | [7] | [51] | [8] | [52] | [9] | [10] | [53] | [11] | [13] | [14] | [17] | [18] | [20] | [21] | [22] | [23] | [24] | [25] | [26] | [29] | [30] | [31] | [54] | [33] | [34] | [36] | [55] | [37] | [38] | [39] | [56] | [40] | [41] | [57] | [44] | [45] | [46] | [47] | [48] | [49]
